# Measurements from patent US11155525B2 (Sanford Burnham Prebys Medical Discovery Institute, priority 2015, dated 2021).
# Molecular target: T1, human apelin receptor (Homo sapiens, UniProt P35414)
# T1 construct: host or cells: CHO cells
# T1 sequence (P35414 1-380): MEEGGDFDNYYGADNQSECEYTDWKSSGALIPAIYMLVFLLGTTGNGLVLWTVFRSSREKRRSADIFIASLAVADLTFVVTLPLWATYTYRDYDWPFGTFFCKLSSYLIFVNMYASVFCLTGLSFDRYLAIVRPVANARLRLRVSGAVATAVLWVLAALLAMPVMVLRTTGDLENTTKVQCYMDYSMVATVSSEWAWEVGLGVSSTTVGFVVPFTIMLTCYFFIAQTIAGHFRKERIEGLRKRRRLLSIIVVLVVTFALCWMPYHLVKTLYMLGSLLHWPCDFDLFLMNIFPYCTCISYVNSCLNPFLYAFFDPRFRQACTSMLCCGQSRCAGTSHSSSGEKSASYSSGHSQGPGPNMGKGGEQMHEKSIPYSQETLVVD
# Experiment: Measurement of apelin receptor agonist activity (cell-based assay determining the amount of intracellular cAMP)
# Settings: CHO cells stably expressing the human apelin receptor, Forskolin 10 μM, 30 minutes, 100% efficacy = [Pyr1]-apelin-13 0.300 μM, concentration giving 50% efficacy
# Method in brief: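 CHO cells stably expressing the receptor were treated for 30 min with compound ([…], 3-fold, 11 points; 0.3% DMSO) together with 10 μM forskolin. cAMP was measured by chemiluminescent lysate assay. Efficacy was scaled from forskolin alone (0%) to 0.300 μM [Pyr1]-apelin-13 plus forskolin (100%), and dose-response curves were fitted.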
row,Structure (SMILES),EC50 [nM]
1,"COC(=O)[C@@H]1CCCN1C(=O)/C=C/c1nnc(-c2ccc(C)o2)n1-c1c(OC)cccc1OC [Example 90, Methyl 1-{(2E)-3-[4-(2,6-dimethoxyphenyl)-5-(5-methylfuran-2-yl)-4H-1,2,4-triazol-3-yl]prop-2-enoyl}-L-prolinate]",503
2,"COC(=O)[C@@H]1C[C@@H](O)CN1C(=O)/C=C/c1nnc(-c2ccc(C)o2)n1-c1c(OC)cccc1OC [Example 91, Methyl (4R)-1-{(2E)-3-[4-(2,6-dimethoxyphenyl)-5-(5-methylfuran-2-yl)-4H-1,2,4-triazol-3-yl]prop-2-enoyl}-4-hydroxy-L-prolinate]",351
3,"COc1cccc(OC)c1-n1c(/C=C/C(=O)N2C[C@H](O)C[C@H]2C(=O)O)nnc1-c1ccc(C)o1 [Example 92, (4R)-1-{(2E)-3-[4-(2,6-Dimethoxyphenyl)-5-(5-methylfuran-2-yl)-4H-1,2,4-triazol-3-yl]prop-2-enoyl}-4-hydroxy-L-proline]",166
4,"COc1cccc(OC)c1-n1c(/C=C/C(=O)N2CCC[C@H]2C(=O)O)nnc1-c1ccc(C)o1 [Example 93, 1-{(2E)-3-[4-(2,6-Dimethoxyphenyl)-5-(5-methylfuran-2-yl)-4H-1,2,4-triazol-3-yl]prop-2-enoyl}-L-proline]",364
5,"COc1cccc(OC)c1-n1c(SCc2nc(=O)o[nH]2)nnc1-c1ccc(C)o1 [Example 94, 3-({[4-(2,6-Dimethoxyphenyl)-5-(5-methylfuran-2-yl)-4H-1,2,4-triazol-3-yl]sulfanyl}methyl)-1,2,4-oxadiazol-5(2H)-one]",71
6,"COc1cccc(OC)c1-n1c(SCC(=O)NS(=O)(=O)c2ccccc2)nnc1-c1ccc(C)o1 [Example 95, 2-{[4-(2,6-Dimethoxyphenyl)-5-(5-methylfuran-2-yl)-4H-1,2,4-triazol-3-yl]sulfanyl}-N-(phenylsulfonyl)acetamide]",6
7,"COc1cccc(OC)c1-n1c(SCP(=O)(OC(C)C)OC(C)C)nnc1-c1ccc(C)o1 [Example 96, Dipropan-2-yl ({[4-(2,6-dimethoxyphenyl)-5-(5-methylfuran-2-yl)-4H-1,2,4-triazol-3-yl]sulfanyl}methyl)phosphonate]",605
8,"CCOC(=O)C(=O)NCc1nnc(-c2ccc(C)o2)n1-c1c(OC)cccc1OC [Example 97, Ethyl ({[4-(2,6-dimethoxyphenyl)-5-(5-methylfuran-2-yl)-4H-1,2,4-triazol-3-yl]methyl}amino)(oxo)acetate]",273
9,"COc1cccc(OC)c1-n1c(CNC(=O)C(=O)O)nnc1-c1ccc(C)o1 [Example 98, ({[4-(2,6-Dimethoxyphenyl)-5-(5-methylfuran-2-yl)-4H-1,2,4-triazol-3-yl]methyl}amino)(oxo)acetic acid]",1170
10,"COc1cccc(OC)c1-n1c(CNC(=O)c2ccc(C)cc2)nnc1-c1ccc(C)o1 [Example 99, N-{[4-(2,6-Dimethoxyphenyl)-5-(5-methylfuran-2-yl)-4H-1,2,4-triazol-3-yl]methyl}-4-methylbenzamide]",338
11,"COc1cccc(OC)c1-n1c(SCc2n[nH]c(=O)[nH]2)nnc1-c1ccc(C)o1 [Example 100, 5-({[4-(2,6-Dimethoxyphenyl)-5-(5-methylfuran-2-yl)-4H-1,2,4-triazol-3-yl]sulfanyl}methyl)-2,4-dihydro-3H-1,2,4-triazol-3-one]",957
12,"COc1cccc(OC)c1-n1c(SCc2n[nH]c(=O)o2)nnc1-c1ccc(C)o1 [Example 101, 5-({[4-(2,6-Dimethoxyphenyl)-5-(5-methylfuran-2-yl)-4H-1,2,4-triazol-3-yl]sulfanyl}methyl)-1,3,4-oxadiazol-2(3H)-one]",587
13,"COc1cccc(OC)c1-n1c(SCP(=O)(O)O)nnc1-c1ccc(C)o1 [Example 102, ({[4-(2,6-Dimethoxyphenyl)-5-(5-methylfuran-2-yl)-4H-1,2,4-triazol-3-yl]sulfanyl}methyl)phosphonic acid]",103
14,"COc1cccc(OC)c1-n1c(SCC2=NOC(=O)C2)nnc1-c1ccc(C)o1 [Example 103, 3-({[4-(2,6-Dimethoxyphenyl)-5-(5-methylfuran-2-yl)-4H-1,2,4-triazol-3-yl]sulfanyl}methyl)-1,2-oxazol-5(4H)-one]",46
15,"COc1cccc(OC)c1-n1c(SCc2cc(=O)[nH][nH]2)nnc1-c1ccc(C)o1 [Example 104, 5-({[4-(2,6-Dimethoxyphenyl)-5-(5-methylfuran-2-yl)-4H-1,2,4-triazol-3-yl]sulfanyl}methyl)-1,2-dihydro-3H-pyrazol-3-one]",48
16,"COc1cccc(OC)c1-n1c(SCc2ccc(C(N)=O)cc2)nnc1-c1ccc(C)o1 [Example 105, 4-({[4-(2,6-Dimethoxyphenyl)-5-(5-methylfuran-2-yl)-4H-1,2,4-triazol-3-yl]sulfanyl}methyl)benzamide]",1200
17,"COc1cccc(OC)c1-n1c(SCc2cccc(C(N)=O)c2)nnc1-c1ccc(C)o1 [Example 106, 3-({[4-(2,6-Dimethoxyphenyl)-5-(5-methylfuran-2-yl)-4H-1,2,4-triazol-3-yl]sulfanyl}methyl)benzamide]",793
18,"COc1cccc(OC)c1-n1c(CNS(=O)(=O)c2ccc(C)cc2)nnc1-c1ccc(C)o1 [Example 107, N-{[4-(2,6-Dimethoxyphenyl)-5-(5-methylfuran-2-yl)-4H-1,2,4-triazol-3-yl]methyl}-4-methylbenzenesulfonamide]",668
